From US20230303572A1, “18-MC SALT FORMS” (Mind Medicine, Inc., priority 2022, published 2023)
Where a name gives a salt, the structure may show the parent alone. Marks after values point to notes of the source that are not given here.

Key:
Type in all cases: physicochemical
[1] = Physical form stability on storage at RT, air drying or exposure to ambient conditions (XRPD)
Text: (§1) For XRPD analysis, a PANalytical Empyrean and X′ Pert3 X-ray powder diffract meter was used.

[2] = Heating experiments and VT-XRPD (N2 drying, heating, cooling back): form change; conditions: for form change after N2 drying (VT-XRPD): N2-drying for 20 min at 30° C.; for Form change after treatment: Heat to 165~170° C. under N2, XRPD form; for Form after heating: solid form by XRPD after heating, cells marked *, # have footnotes that are not shown
Text: as §1

[3] = Approximate solubility estimated by stepwise solvent addition (RT and 50° C.)
Method: Approximate solubility values of sulfate Type A (824511-04-A) were estimated in 10 solvents to guide the solvent selection in the polymorph screening, with results summarized in TABLE 16B.
Approximate solubility of oxalate Type B (824511-04-C) was estimated in 10 solvents to guide the solvent selection in polymorph screening of oxalate, and the results were summarized in TABLE 19C.
Procedure: weigh ~2 mg solids into each 3-mL glass vial, add in corresponding solvent stepwise and sonicate or oscillate to see if solids dissolved completely. Stop adding solvent till the solids dissolves or total volume reaches 1.0 mL. Calculate the approximate solubility based on solvent volume.
The approximate solubility of mesylate Type A (824511-23-B) was estimated in 10 solvents to guide the solvent selection in polymorph screening of the mesylate, with results summarized in TABLE 22C.
Approximate solubility of HBr salt Type A (824511-29-B) was estimated in 10 solvents to guide the solvent selection in polymorph screening of HBr salt, with data summarized in TABLE 25B.
Approximate solubility of tosylate Type B (824511-23-A-0628) was estimated in 40 solvents to guide the solvent selection in polymorph screening of tosylate, with data summarized in TABLE 27B.
Approximate solubility of besylate Type B (824511-44-C2) was estimated in 38 solvents to guide the solvent selection in polymorph screening of besylate, with results shown in TABLE 31.

[4] = heating to 80° C. and cooling back to RT
[5] = approximate solubility in CHCl3 at RT
[6] = approximate solubility in EtOAc at RT
[7] = approximate solubility in H2O at RT
[8] = approximate solubility in MeOH at RT
[9] = approximate solubility in THF at RT
[10] = approximate solubility in n-Heptane at RT

## COCC[C@H]1CC2CN3CCc4c([nH]c5ccccc45)[C@](C(=O)OC)(C2)[C@H]13 [sulfate Type B, 18-methoxycoronaridine]
[1]; after air drying or RT storage, duration not stated
  form conversion, summary statement: converted to sulfate Type E
[1]; storage at RT in a sealed vial for ~12 days
  form change after storage (XRPD): form change to sulfate Type E

## COCC[C@H]1CC2CN3CCc4c([nH]c5ccccc45)[C@](C(=O)OC)(C2)[C@H]13 [HBr salt Type B, 18-methoxycoronaridine]
[1]; after storage or heating experiments
  form conversion, summary statement: could convert to HBr salt Type A
[1]; storage at RT for ~20 days
  Form change on storage: *: Partially converted to HBr salt Type A after storage at RT for ~20 days.
  form change after storage (XRPD): partially converted to HBr salt anhydrate Type A

## COCC[C@H]1CC2CN3CCc4c([nH]c5ccccc45)[C@](C(=O)OC)(C2)[C@H]13 [besylate Type B, 18-methoxycoronaridine]
[2]
  form change after N2 drying (VT-XRPD): no obvious form change
[2]; heating to 100° C.
  form change after heating (XRPD/VT-XRPD): no obvious form change

## COCC[C@H]1CC2CN3CCc4c([nH]c5ccccc45)[C@](C(=O)OC)(C2)[C@H]13 [sulfate Type E, 18-methoxycoronaridine]
[2]; heating to 100° C.
  form change after heating (XRPD/VT-XRPD): no form change

## COCC[C@H]1CC2CN3CCc4c([nH]c5ccccc45)[C@](C(=O)OC)(C2)[C@H]13 [tosylate Type F, 18-methoxycoronaridine]
[2]; heating to 90° C.
  form change after heating (XRPD): form change to tosylate Type B

## COCC[C@H]1CC2CN3CCc4c([nH]c5ccccc45)[C@](C(=O)OC)(C2)[C@H]13 [tosylate Type E, 18-methoxycoronaridine]
[2]; [4]
  form change after heating (XRPD): no form change
[2]; heating to 101° C. and cooling back to RT
  form change after heating (XRPD): a sample with weak crystallinity and similar to tosylate Type B was obtained

## COCC[C@H]1CC2CN3CCc4c([nH]c5ccccc45)[C@](C(=O)OC)(C2)[C@H]13 [sulfate Type A, 18-methoxycoronaridine]
[2]
  form change after N2 drying (VT-XRPD): no obvious form change
[2]; heating to 120° C.
  form change after heating (XRPD/VT-XRPD): no obvious form change
[3]; CHCl3, RT, approximate
  Solubility (mg/mL): S<1.9 mg/mL
[3]; DCM, RT, approximate
  Solubility (mg/mL): S<2.1 mg/mL
[3]; EtOAc, RT, approximate
  Solubility (mg/mL): S<2.0 mg/mL
[3]; MeOH, RT, approximate
  Solubility (mg/mL): S>44.0 mg/mL
[3]; THF, RT, approximate
  Solubility (mg/mL): S<1.9 mg/mL
[3]; Toluene, RT, approximate
  Solubility (mg/mL): S<2.2 mg/mL
[3]; n-Heptane, RT, approximate
  Solubility (mg/mL): S<1.8 mg/mL

## COCC[C@H]1CC2CN3CCc4c([nH]c5ccccc45)[C@](C(=O)OC)(C2)[C@H]13 [mesylate Type A, 18-methoxycoronaridine]
[2]
  form change after N2 drying (VT-XRPD): no form change
[2]; heating to 100° C.
  form change after heating (XRPD/VT-XRPD): no obvious form change
[3]; approximate solubility in Acetone at RT
  Solubility (mg/mL): S<2.3 mg/mL
[3]; [5]
  Solubility (mg/mL): S>42.0* mg/mL
[3]; [6]
  Solubility (mg/mL): S<2.2 mg/mL
[3]; [7]
  Solubility (mg/mL): S>42.0* mg/mL
[3]; [8]
  Solubility (mg/mL): S>40.0 mg/mL
[3]; [9]
  Solubility (mg/mL): S<2.0 mg/mL
[3]; [10]
  Solubility (mg/mL): S<2.0 mg/mL

## COCC[C@H]1CC2CN3CCc4c([nH]c5ccccc45)[C@](C(=O)OC)(C2)[C@H]13 [sulfate Type D, 18-methoxycoronaridine]
[2]
  form change after N2 drying (VT-XRPD): a new form was observed and assigned as sulfate Type F

## COCC[C@H]1CC2CN3CCc4c([nH]c5ccccc45)[C@](C(=O)OC)(C2)[C@H]13 [HCl salt Type F, 18-methoxycoronaridine]
[2]
  Form change after treatment: HCl salt Type K*
  Form after heating: HCl salt Type K^#

## COCC[C@H]1CC2CN3CCc4c([nH]c5ccccc45)[C@](C(=O)OC)(C2)[C@H]13 [besylate Type A, 18-methoxycoronaridine]
[2]; heating to 100° C.
  form change after heating (XRPD/VT-XRPD): a new form was observed and assigned as besylate Type C

## COCC[C@H]1CC2CN3CCc4c([nH]c5ccccc45)[C@](C(=O)OC)(C2)[C@H]13 [HBr salt Type A, 18-methoxycoronaridine]
[2]; drying or heating under N2 to higher temperatures and cooling back to RT
  form change after drying or heating (VT-XRPD): no form change
[3]; approximate solubility in ACN at RT
  Solubility (mg/mL): S<2.1 * mg/mL
[3]; [5]
  Solubility (mg/mL): S<2.1 * mg/mL
[3]; approximate solubility in DCM at RT
  Solubility (mg/mL): S<2.1 * mg/mL
[3]; [6]
  Solubility (mg/mL): S<2.1 mg/mL
[3]; [7]
  Solubility (mg/mL): S<2.1 mg/mL
[3]; [8]
  Solubility (mg/mL): S>42.0 mg/mL
[3]; [9]
  Solubility (mg/mL): S<2.0 mg/mL
[3]; [10]
  Solubility (mg/mL): S<2.0 mg/mL

## COCC[C@H]1CC2CN3CCc4c([nH]c5ccccc45)[C@](C(=O)OC)(C2)[C@H]13 [HCl salt Type H, 18-methoxycoronaridine]
[2]
  Form change after treatment: Freebase Type A+extra peak*
  Form after heating: Freebase Type A+extra peak

## COCC[C@H]1CC2CN3CCc4c([nH]c5ccccc45)[C@](C(=O)OC)(C2)[C@H]13 [oxalate Type B, 18-methoxycoronaridine]
[3]; [6]
  Solubility (mg/mL): S<1.8 mg/mL
[3]; [7]
  Solubility (mg/mL): S>38.0 mg/mL
[3]; [8]
  Solubility (mg/mL): S>44.0 mg/mL
[3]; [10]
  Solubility (mg/mL): S<2.1 mg/mL

## COCCC1CC2CN3CCc4c([nH]c5ccccc45)C(C(=O)OC)(C2)C13.O=S(=O)(O)c1ccccc1 (centres unmarked) [besylate Type B (824511-44-C2)]
[3]; 50° C., solvent 2-MeTHF, *: little solids in the vial
  Approximate solubility: S<1.9* mg/mL
[3]; 50° C., solvent Toluene
  Approximate solubility: S<1.9 mg/mL
[3]; 50° C., solvent n-Heptane
  Approximate solubility: S<2.0 mg/mL
[3]; RT, solvent 2-MeTHF
  Approximate solubility: S<1.9 mg/mL
[3]; RT, solvent ACN
  Approximate solubility: S>40.0 mg/mL
[3]; RT, solvent ACN/H2O (1:2, aw 0.9), *: little solids in the vial
  Approximate solubility: S<1.9* mg/mL
[3]; RT, solvent CHCl3
  Approximate solubility: S>40.0 mg/mL
[3]; RT, solvent DCM
  Approximate solubility: S>40.0 mg/mL
[3]; RT, solvent EtOAc
  Approximate solubility: S<2.0 mg/mL
[3]; RT, solvent H2O
  Approximate solubility: S<2.0 mg/mL
[3]; RT, solvent IPA/H2O (847:153, aw 0.8)
  Approximate solubility: S>40.0 mg/mL
[3]; RT, solvent MeOH
  Approximate solubility: S>44.0 mg/mL
[3]; RT, solvent THF/H2O (87:13, aW 0.8)
  Approximate solubility: S>42.0 mg/mL
[3]; RT, solvent THF/H2O (981:19, aw 0.2)
  Approximate solubility: S>40.0 mg/mL
[3]; RT, solvent n-Heptane
  Approximate solubility: S<2.0 mg/mL

## COCC[C@H]1CC2CN3CCc4c([nH]c5ccccc45)[C@](C(=O)OC)(C2)[C@H]13 [tosylate Type B, 18-methoxycoronaridine]
[3]; 50° C., 1,4-Dioxane/n-heptane (1:2) v:v
  Approximate solubility: S<1.9 mg/mL
[3]; 50° C., IPAc
  Approximate solubility: S<2.2 mg/mL
[3]; 50° C., MTBE
  Approximate solubility: S<2.1 mg/mL
[3]; 50° C., Toluene
  Approximate solubility: S<1.9 mg/mL
[3]; 50° C., n-Heptane
  Approximate solubility: S<2.0 mg/mL
[3]; RT, 2-MeTHF
  Approximate solubility: S<2.1 mg/mL
[3]; RT, ACN/toluene (4:1) v:v
  Approximate solubility: S>42.0 mg/mL
[3]; RT, Acetone/n-heptane (4:1) v:v
  Approximate solubility: S<2.0 mg/mL
[3]; RT, CHCl3
  Approximate solubility: S>40.0 mg/mL
[3]; RT, CHCl3/toluene (1:4) v:v
  Approximate solubility: S<1.9 mg/mL
[3]; RT, EtOAc, little solid in the vial
  Approximate solubility: S<2.1^& mg/mL
[3]; RT, EtOH
  Approximate solubility: S>40.0 mg/mL
[3]; RT, EtOH/n-hexane (3:1) v:v
  Approximate solubility: S>42.0 mg/mL
[3]; RT, H2O
  Approximate solubility: S<2.0 mg/mL
[3]; RT, MeOH
  Approximate solubility: S>44.0 mg/mL
[3]; RT, THF/H2O (87:13) v:v
  Approximate solubility: S>42.0 mg/mL
[3]; RT, n-Heptane
  Approximate solubility: S<2.0 mg/mL

## COCC[C@H]1CC2CN3CCc4c([nH]c5ccccc45)[C@](C(=O)OC)(C2)[C@H]13 [tosylate Type G, 18-methoxycoronaridine]
[2]; [4]
  form change after heating (XRPD): no form change
[2]; heating to 90° C.
  form change after heating (XRPD): crystallinity of the sample decreased significantly
[2]; heating to 100° C.
  form change after heating (XRPD/VT-XRPD): amorphous was obtained
